Assay results published in patent US7256187B2, “Rifamycin C-11 oxime derivatives effective against drug-resistant microbes” (Cumbre Pharmaceuticals Inc., priority 2004, dated 2007).
Converted amounts (≈) assume the structure as drawn.

Key:
Format in all cases: cell-based
[1] = tested on: Staphylococcus aureus ATCC29213; assay: MIC, microbroth dilution; conditions: Staphylococcus aureus ATCC29213, rifS; read-out: Antimicrobial activity (MIC)
[2] = tested on: Staphylococcus aureus ATCC29213 rpoB^D417Y; assay: microbe, parasite or virus in culture; conditions: Staphylococcus aureus ATCC29213 rpoB^D417Y, rifR; read-out: Antimicrobial activity (MIC)
Experimental: (§1) Representative compounds were assayed for antimicrobial activity as follows: Minimum Inhibitory Concentrations (“MICs”) were determined by the microbroth dilution method as per NCCLS guidelines (National Committee for Clinical Laboratory Standards. 2000. Methods for dilution antimicrobial susceptibility tests for bacteria that grow aerobically, 5th ed. M7-A5. National Committee for Clinical Laboratory Standards, Wayne, Pa.), except that all growth incubations were conducted at 37° C. Bacterial cultures were tested in the following bacteriological media: S. aureus, S. epidermidis, and E. coli in Cation-Adjusted Mueller-Hinton Broth, S. pneumoniae in THY Broth supplemented with 1 mg/mL catalase under 5% CO2 atmosphere, S. pyogenes in THY Broth, E. faecalis in BHI Broth, H. influenzae in BHI Broth supplemented with 0.75 μL of 1 mg/mL NAD and 150 μL of 1 mg/ml hematin per 5 mL, and M. smegmatis in Middlebrook Broth plus ADC Enrichment.
(§2) S. aureus ATCC 29213 RpoB^H418Y is a rifampin-resistant strain with a mutation in the RpoB gene of RNA polymerase. […] S. aureus EN1252a gyrA^S84L grlA^S80F is a quinolone-resistant strain due to double gene mutations of DNA gyrase and topoisomerase IV.

[3] = tested on: Staphylococcus aureus ATCC29213 rpoB^H418Y; assay: microbe, parasite or virus in culture; conditions: Staphylococcus aureus ATCC29213 rpoB^H418Y, rifR; read-out: Antimicrobial activity (MIC)
Experimental: as §1, §2

[4] = tested on: Staphylococcus aureus EN1252a gyrA^S84L grlA^S80F; assay: microbe, parasite or virus in culture; conditions: Staphylococcus aureus EN1252a gyrA^S84L grlA^S80F, cipR; read-out: Antimicrobial activity (MIC)
Experimental: as §1, §2

[5] = tested on: Staphylococcus epidermidis ATCC12228; assay: MIC, microbroth dilution; conditions: Staphylococcus epidermidis ATCC12228, rifS; read-out: Antimicrobial activity (MIC)
[6] = tested on: Streptococcus pneumoniae ATCC6303; assay: MIC, microbroth dilution; conditions: Streptococcus pneumoniae ATCC6303, rifS; read-out: Antimicrobial activity (MIC)
[7] = tested on: Streptococcus pyogenes ATCC19615; assay: MIC, microbroth dilution; conditions: Streptococcus pyogenes ATCC19615, rifS; read-out: Antimicrobial activity (MIC)
[8] = tested on: Enterococcus faecalis ATCC29212; assay: MIC, microbroth dilution; conditions: Enterococcus faecalis ATCC29212, rifS; read-out: Antimicrobial activity (MIC)
[9] = tested on: Haemophilus influenzae ATCC10211; assay: MIC, microbroth dilution; conditions: Haemophilus influenzae ATCC10211, rifS; read-out: Antimicrobial activity (MIC)
[10] = tested on: Escherichia coli ATCC25922; assay: MIC, microbroth dilution; conditions: Escherichia coli ATCC25922, rifS; read-out: Antimicrobial activity (MIC)
[11] = tested on: Mycobacterium smegmatis ATCC700084; assay: MIC, microbroth dilution; conditions: Mycolicibacterium smegmatis; Mycobacterium smegmatis ATCC700084, rifS; read-out: Antimicrobial activity (MIC)

| SMILES | MIC [1] | MIC [2] | MIC [3] | MIC [4] | MIC [5] | MIC [6] | MIC [7] | MIC [8] | MIC [9] | MIC [10] | MIC [11] |
| --- | --- | --- | --- | --- | --- | --- | --- | --- | --- | --- | --- |
| CO[C@H]1/C=C/O[C@@]2(C)Oc3c(C)c(O)c4c(c3/C2=N/OCCN2CCN(c3ccccn3)CC2)C(=O)C=C(NC(=O)/C(C)=C\C=C\[C@H](C)[C@H](O)[C@@H](C)[C@@H](O)[C@@H](C)[C@H](OC(C)=O)[C@@H]1C)C4=O [Example 17] | 0.004 to 0.5 µg/mL (≈ 0.00444 to 0.556 µM) | 0.25 to 32 µg/mL (≈ 0.278 to 35.6 µM) | 0.125 to 16 µg/mL (≈ 0.139 to 17.8 µM) | 0.004 to 0.5 µg/mL (≈ 0.00444 to 0.556 µM) | 0.0005 to 0.063 µg/mL (≈ 0.000556 to 0.07 µM) | 0.0002 to 0.125 µg/mL (≈ 0.000222 to 0.139 µM) | 0.0005 to 0.063 µg/mL (≈ 0.000556 to 0.07 µM) | 2 to 32 µg/mL (≈ 2.22 to 35.6 µM) | 0.03 to 2 µg/mL (≈ 0.0333 to 2.22 µM) | 0.125 to 8 µg/mL (≈ 0.139 to 8.89 µM) | 0.5 to 64 µg/mL (≈ 0.556 to 71.1 µM) |
| CO[C@H]1/C=C/O[C@@]2(C)Oc3c(C)c(O)c4c(c3/C2=N/OCCN2CCN(c3cc5c(cc3F)c(=O)c(C(=O)O)cn5C3CC3)CC2)C(=O)C=C(NC(=O)/C(C)=C\C=C\[C@H](C)[C@H](O)[C@@H](C)[C@@H](O)[C@@H](C)[C@H](OC(C)=O)[C@@H]1C)C4=O [Example 15] | 0.004 to 0.5 µg/mL (≈ 0.00374 to 0.468 µM) | 0.25 to 32 µg/mL (≈ 0.234 to 30 µM) | 0.125 to 16 µg/mL (≈ 0.117 to 15 µM) | 0.004 to 0.5 µg/mL (≈ 0.00374 to 0.468 µM) | 0.0005 to 0.063 µg/mL (≈ 0.000468 to 0.059 µM) | 0.0002 to 0.125 µg/mL (≈ 0.000187 to 0.117 µM) | 0.0005 to 0.063 µg/mL (≈ 0.000468 to 0.059 µM) | 2 to 32 µg/mL (≈ 1.87 to 30 µM) | 0.03 to 2 µg/mL (≈ 0.0281 to 1.87 µM) | 0.125 to 8 µg/mL (≈ 0.117 to 7.49 µM) | 0.5 to 64 µg/mL (≈ 0.468 to 59.9 µM) |
| CO[C@H]1/C=C/O[C@@]2(C)Oc3c(C)c(O)c4c(O)c(c(/C=N/N5CCN(c6cc7c(cc6F)c(=O)c(C(=O)O)cn7C6CC6)CC5)c(O)c4c3/C2=N/O)NC(=O)/C(C)=C\C=C\[C@H](C)[C@H](O)[C@@H](C)[C@@H](O)[C@@H](C)[C@H](OC(C)=O)[C@@H]1C [Example 39, 3-[4-(3-Carboxy-1-cyclopropyl-6-fluoro-4-oxo-1,4-dihydroquinolin-7-yl)piperazin-1-yl-aminomethylenyl]-11-deoxy-11-hydroxyiminorifamycin SV] | 0.004 to 0.5 µg/mL (≈ 0.00374 to 0.468 µM) | 0.25 to 32 µg/mL (≈ 0.234 to 29.9 µM) | 0.125 to 16 µg/mL (≈ 0.117 to 15 µM) | 0.004 to 0.5 µg/mL (≈ 0.00374 to 0.468 µM) | 0.0005 to 0.063 µg/mL (≈ 0.000468 to 0.0589 µM) | 0.0002 to 0.125 µg/mL (≈ 0.000187 to 0.117 µM) | 0.0005 to 0.063 µg/mL (≈ 0.000468 to 0.0589 µM) | 2 to 32 µg/mL (≈ 1.87 to 29.9 µM) | 0.03 to 2 µg/mL (≈ 0.0281 to 1.87 µM) | 0.125 to 8 µg/mL (≈ 0.117 to 7.48 µM) | 0.5 to 64 µg/mL (≈ 0.468 to 59.9 µM) |
| CO[C@H]1/C=C/O[C@@]2(C)Oc3c(C)c(O)c4c(c3/C2=N/OCCN2CCN(S(=O)(=O)c3cccc5ccncc35)CC2)C(=O)C=C(NC(=O)/C(C)=C\C=C\[C@H](C)[C@H](O)[C@@H](C)[C@@H](O)[C@@H](C)[C@H](OC(C)=O)[C@@H]1C)C4=O [Example 19, 11-Deoxy-11-{2-[4-(isoquinoline-8-sulfonyl)-piperazin-1-yl]-ethoxyimino}rifamycin S] | 0.004 to 0.5 µg/mL (≈ 0.00394 to 0.493 µM) | 0.25 to 32 µg/mL (≈ 0.247 to 31.6 µM) | 0.125 to 16 µg/mL (≈ 0.123 to 15.8 µM) | 0.004 to 0.5 µg/mL (≈ 0.00394 to 0.493 µM) | 0.0005 to 0.063 µg/mL (≈ 0.000493 to 0.0621 µM) | 0.0002 to 0.125 µg/mL (≈ 0.000197 to 0.123 µM) | 0.0005 to 0.063 µg/mL (≈ 0.000493 to 0.0621 µM) | 2 to 32 µg/mL (≈ 1.97 to 31.6 µM) | 0.03 to 2 µg/mL (≈ 0.0296 to 1.97 µM) | 0.125 to 8 µg/mL (≈ 0.123 to 7.89 µM) | 0.5 to 64 µg/mL (≈ 0.493 to 63.1 µM) |
| CO[C@H]1/C=C/O[C@@]2(C)Oc3c(C)c(O)c4c(c3/C2=N/OCC(=O)N2CCN(c3cc5c(cc3F)c(=O)c(C(=O)O)cn5C3CC3)CC2)C(=O)C(N2CCOCC2)=C(NC(=O)/C(C)=C\C=C\[C@H](C)[C@H](O)[C@@H](C)[C@@H](O)[C@@H](C)[C@H](OC(C)=O)[C@@H]1C)C4=O [Example 29, 11-Deoxy-3-(morpholin-4-yl)-11-{2-oxo-2-[4-(3-carboxy-1-cyclopropl-6-fluoro-4-oxo-1,4-dihydroquinolin-7-yl)piperazin-1-yl]ethoxyimino}rifamycin S] | 0.004 to 0.5 µg/mL (≈ 0.00343 to 0.428 µM) | 0.25 to 32 µg/mL (≈ 0.214 to 27.4 µM) | 0.125 to 16 µg/mL (≈ 0.107 to 13.7 µM) | 0.004 to 0.5 µg/mL (≈ 0.00343 to 0.428 µM) | 0.0005 to 0.063 µg/mL (≈ 0.000428 to 0.054 µM) | 0.0002 to 0.125 µg/mL (≈ 0.000171 to 0.107 µM) | 0.0005 to 0.063 µg/mL (≈ 0.000428 to 0.054 µM) | 2 to 32 µg/mL (≈ 1.71 to 27.4 µM) | 0.03 to 2 µg/mL (≈ 0.0257 to 1.71 µM) | 0.125 to 8 µg/mL (≈ 0.107 to 6.85 µM) | 0.5 to 64 µg/mL (≈ 0.428 to 54.8 µM) |
| CO[C@H]1/C=C/O[C@@]2(C)Oc3c(C)c(O)c4c(c3/C2=N/OCCN2CCN(Cc3ccccc3)CC2)C(=O)C=C(NC(=O)/C(C)=C\C=C\[C@H](C)[C@H](O)[C@@H](C)[C@@H](O)[C@@H](C)[C@H](OC(C)=O)[C@@H]1C)C4=O [Example 25, 11-Deoxy-11-[2-(4-benzylpiperazin-1-yl)ethoxyimino]rifamycin S] | 0.004 to 0.5 µg/mL (≈ 0.00438 to 0.548 µM) | 0.25 to 32 µg/mL (≈ 0.274 to 35 µM) | 0.125 to 16 µg/mL (≈ 0.137 to 17.5 µM) | 0.004 to 0.5 µg/mL (≈ 0.00438 to 0.548 µM) | 0.0005 to 0.063 µg/mL (≈ 0.000548 to 0.069 µM) | 0.0002 to 0.125 µg/mL (≈ 0.000219 to 0.137 µM) | 0.0005 to 0.063 µg/mL (≈ 0.000548 to 0.069 µM) | 2 to 32 µg/mL (≈ 2.19 to 35 µM) | 0.03 to 2 µg/mL (≈ 0.0329 to 2.19 µM) | 0.125 to 8 µg/mL (≈ 0.137 to 8.76 µM) | 0.5 to 64 µg/mL (≈ 0.548 to 70.1 µM) |
